Assays:
[1] = tested on: Candida albicans; assay: Antifungal activity against Candida albicans ATCC 44859 after 48 hrs by microdilution method; assay type: functional; settings: ATCC 44859, 48 h
[2] = tested on: Candida albicans; assay: Antifungal activity against Candida albicans ATCC 90028 after 24 hrs by microdilution method; assay type: functional; settings: ATCC 90028, 24 h
[3] = tested on: Candida albicans; assay: Antifungal activity against Candida albicans ATCC 90028 after 48 hrs by microdilution method; assay type: functional; settings: ATCC 90028, 48 h
[4] = tested on: Candida parapsilosis; assay: Antifungal activity against Candida parapsilosis ATCC 22019 after 24 hrs by microdilution method; assay type: functional; settings: Lodderomyces parapsilosis, ATCC 22019, 24 h
[5] = tested on: Candida parapsilosis; assay: Antifungal activity against Candida parapsilosis ATCC 22019 after 48 hrs by microdilution method; assay type: functional; settings: Lodderomyces parapsilosis, ATCC 22019, 48 h
[6] = tested on: Pichia kudriavzevii; assay: Antifungal activity against Candida krusei ATCC 6258 after 24 hrs by microdilution method; assay type: functional; settings: ATCC 6258, 24 h
[7] = tested on: Pichia kudriavzevii; assay: Antifungal activity against Candida krusei ATCC 6258 after 48 hrs by microdilution method; assay type: functional; settings: ATCC 6258, 48 h
[8] = tested on: Pichia kudriavzevii; assay: Antifungal activity against Candida krusei E28 after 24 hrs by microdilution method; assay type: functional; settings: E28, 24 h
[9] = tested on: Pichia kudriavzevii; assay: Antifungal activity against Candida krusei E28 after 48 hrs by microdilution method; assay type: functional; settings: E28, 48 h
[10] = tested on: Candida tropicalis; assay: Antifungal activity against Candida tropicalis 156 after 24 hrs by microdilution method; assay type: functional; settings: Candida tropicalis, 156, 24 h
[11] = tested on: Candida tropicalis; assay: Antifungal activity against Candida tropicalis 156 after 48 hrs by microdilution method; assay type: functional; settings: Candida tropicalis, 156, 48 h
[12] = tested on: Nakaseomyces glabratus; assay: Antifungal activity against Candida glabrata 20/I after 24 hrs by microdilution method; assay type: functional
[13] = tested on: Nakaseomyces glabratus; assay: Antifungal activity against Candida glabrata 20/I after 48 hrs by microdilution method; assay type: functional
[14] = tested on: Clavispora lusitaniae; assay: Antifungal activity against Candida lusitaniae 2446/I after 24 hrs by microdilution method; assay type: functional
[15] = tested on: Clavispora lusitaniae; assay: Antifungal activity against Candida lusitaniae 2446/I after 48 hrs by microdilution method; assay type: functional
[16] = tested on: Trichosporon asahii; assay: Antifungal activity against Trichosporon asahii 1188 after 24 hrs by microdilution method; assay type: functional; settings: Trichosporon asahii, 1188, 24 h
[17] = tested on: Trichosporon asahii; assay: Antifungal activity against Trichosporon asahii 1188 after 48 hrs by microdilution method; assay type: functional; settings: Trichosporon asahii, 1188, 48 h
[18] = tested on: Aspergillus fumigatus; assay: Antifungal activity against Aspergillus fumigatus 231 after 24 hrs by microdilution method; assay type: functional, organism-based; settings: Aspergillus fumigatus, 231, 24 h
[19] = tested on: Aspergillus fumigatus; assay: Antifungal activity against Aspergillus fumigatus 231 after 48 hrs by microdilution method; assay type: functional, organism-based; settings: Aspergillus fumigatus, 231, 48 h
[20] = tested on: Lichtheimia corymbifera; assay: Antifungal activity against Absidia corymbifera 272 after 24 hrs by microdilution method; assay type: functional, organism-based; settings: Lichtheimia corymbifera, 272, 24 h
[21] = tested on: Lichtheimia corymbifera; assay: Antifungal activity against Absidia corymbifera 272 after 48 hrs by microdilution method; assay type: functional, organism-based; settings: Lichtheimia corymbifera, 272, 48 h
[22] = tested on: Candida albicans; assay: Antifungal activity against Candida albicans ATCC 44859 after 24 hrs by microdilution method; assay type: functional; settings: ATCC 44859, 24 h
[23] = tested on: Trichophyton mentagrophytes; assay: Antifungal activity against Trichophyton mentagrophytes 445 after 72 hrs by microdilution method; assay type: functional, organism-based; settings: Trichophyton mentagrophytes, 445, 72 h
[24] = tested on: Trichophyton mentagrophytes; assay: Antifungal activity against Trichophyton mentagrophytes 445 after 120 hrs by microdilution method; assay type: functional, organism-based; settings: Trichophyton mentagrophytes, 445, 120 h
[25] = tested on: L1210; assay: Cytostatic activity against mouse L1210 cells at 10 umol/L after 72 hrs by XTT assay; assay type: ADME, cell-based; settings: l1210, 72 h, 10 µM
[26] = tested on: HL-60; assay: Cytostatic activity against human HL60 cells at 10 umol/L after 72 hrs by XTT assay; assay type: ADME, cell-based; settings: hl-60, 72 h, 10 µM
[27] = Cytostatic activity against human HeLaS3 cells at 10 umol/L after 48 hrs by XTT assay; assay type: ADME, cell-based; settings: hela s3, 48 h, 10 µM
[28] = tested on: CCRF-CEM; assay: Cytostatic activity against human CCRF-CEM cells after 72 hrs by XTT assay; assay type: ADME, cell-based
[29] = tested on: HT-29; assay: Cytostatic activity against human HT-29 cells at 10 umol/L after 72 hrs by XTT assay; assay type: ADME, cell-based; settings: ht-29, 72 h, 10 µM
[30] = Cytostatic activity against human COLO201 cells at 10 umol/L after 72 hrs by XTT assay; assay type: ADME, cell-based; settings: colo 201, 72 h, 10 µM

O=C1C=CC(=O)C1=Cc1ccc(F)cc1
IC80 [1]: 15.6 µM
IC80 [2]: 15.6 µM
IC80 [3]: 31.2 µM
IC80 [4]: 15.6 µM
IC80 [5]: 31.2 µM
IC80 [6]: 15.6 µM
IC80 [7]: 31.2 µM
IC80 [8]: 15.6 µM
IC80 [9]: 31.2 µM
IC80 [10]: 15.6 µM
IC80 [11]: 31.2 µM
IC80 [12]: 31.2 µM
IC80 [13]: 31.2 µM
IC80 [14]: 15.6 µM
IC80 [15]: 31.2 µM
IC80 [16]: 31.2 µM
IC80 [17]: 62.5 µM
IC80 [18]: 31.2 µM
IC80 [19]: 62.5 µM
IC80 [20]: > 125 µM
IC80 [21]: > 125 µM
IC80 [22]: 7.81 µM
IC80 [23]: 15.6 µM
IC50 [24]: 15.6 µM
Activity [25]: Non-toxic
Activity [26]: Non-toxic
Activity [27]: Non-toxic
IC50 [28]: 1.6 µM
Activity [29]: Non-toxic
Activity [30]: Non-toxic

O=C1C=CC(=O)C1=Cc1cccc(Br)c1
IC80 [1]: 31.2 µM
IC80 [2]: 15.6 µM
IC80 [3]: 31.2 µM
IC80 [4]: 31.2 µM
IC80 [5]: 62.5 µM
IC80 [6]: 15.6 µM
IC80 [7]: 31.2 µM
IC80 [8]: 31.2 µM
IC80 [9]: 31.2 µM
IC80 [10]: 31.2 µM
IC80 [11]: 62.5 µM
IC80 [12]: 31.2 µM
IC80 [13]: 62.5 µM
IC80 [14]: 31.2 µM
IC80 [15]: 31.2 µM
IC80 [16]: 32.5 µM
IC80 [17]: 125 µM
IC80 [18]: 125 µM
IC80 [19]: 125 µM
IC80 [20]: > 125 µM
IC80 [21]: > 125 µM
IC80 [22]: 15.6 µM
IC80 [23]: 15.6 µM
IC50 [24]: 15.6 µM
Activity [25]: Non-toxic
Activity [26]: Non-toxic
Activity [27]: Non-toxic
IC50 [28]: 7.5 µM
Activity [29]: Non-toxic
Activity [30]: Non-toxic

O=C1C=CC(=O)C1=Cc1cccs1
IC80 [1]: 7.81 µM
IC80 [2]: 15.6 µM
IC80 [3]: 15.6 µM
IC80 [4]: 15.6 µM
IC80 [5]: 15.6 µM
IC80 [6]: 7.81 µM
IC80 [7]: 15.6 µM
IC80 [8]: 7.81 µM
IC80 [9]: 7.81 µM
IC80 [10]: 15.6 µM
IC80 [11]: 15.6 µM
IC80 [12]: 7.81 µM
IC80 [13]: 15.6 µM
IC80 [14]: 15.6 µM
IC80 [15]: 15.6 µM
IC80 [16]: 15.6 µM
IC80 [17]: 31.2 µM
IC80 [18]: 15.6 µM
IC80 [19]: 15.6 µM
IC80 [20]: 500 µM
IC80 [21]: > 500 µM
IC80 [22]: 7.81 µM
IC80 [23]: 15.6 µM
IC50 [24]: 15.6 µM
Activity [25]: Non-toxic
Activity [26]: Non-toxic
Activity [27]: Non-toxic
IC50 [28]: 4.2 µM
Activity [29]: Non-toxic
Activity [30]: Non-toxic

O=C1C=CC(=O)C1=C/C=C/c1ccccc1
IC80 [1]: 1.95 µM
IC80 [2]: 15.6 µM
IC80 [3]: 15.6 µM
IC80 [4]: 3.9 µM
IC80 [5]: 7.81 µM
IC80 [6]: 3.9 µM
IC80 [7]: 7.81 µM
IC80 [8]: 15.6 µM
IC80 [9]: 15.6 µM
IC80 [10]: 7.81 µM
IC80 [11]: 15.6 µM
IC80 [12]: 15.6 µM
IC80 [13]: 31.2 µM
IC80 [14]: 7.81 µM
IC80 [15]: 15.6 µM
IC80 [16]: 7.81 µM
IC80 [17]: 15.6 µM
IC80 [18]: 31.2 µM
IC80 [19]: 31.2 µM
IC80 [20]: > 125 µM
IC80 [21]: > 125 µM
IC80 [22]: 1.95 µM
IC80 [23]: 7.81 µM
IC50 [24]: 62.5 µM
Activity [25]: Non-toxic
Activity [26]: Non-toxic
Activity [27]: Non-toxic
IC50 [28]: 4.4 µM
Activity [29]: Non-toxic
Activity [30]: Non-toxic

OC(Cn1cncn1)(Cn1cncn1)c1ccc(F)cc1F [FLUCONAZOLE]
IC80 [1]: 2 µM
IC80 [2]: 0.8 µM
IC80 [3]: 3.3 µM
IC80 [4]: 6.5 µM
IC80 [5]: 13 µM
IC80 [6]: > 50 µM
IC80 [7]: > 50 µM
IC80 [8]: > 50 µM
IC80 [9]: > 50 µM
IC80 [10]: 3 µM
IC80 [11]: 5 µM
IC80 [12]: 22 µM
IC80 [13]: > 50 µM
IC80 [14]: 3.3 µM
IC80 [15]: 3.3 µM
IC80 [16]: 4 µM
IC80 [17]: 9 µM
IC80 [18]: > 50 µM
IC80 [19]: > 50 µM
IC80 [20]: > 50 µM
IC80 [21]: > 50 µM
IC80 [22]: 1 µM
IC80 [23]: 17 µM
IC50 [24]: 26 µM

Source: ChEMBL document CHEMBL1833895, “Synthesis and biological activity of desmethoxy analogues of coruscanone A” (Bioorg Med Chem Lett, 2011)
